System: rat Schwann cells
Assay: In vitro test using Schwann cells (Schwann cell differentiation promotion, MAG immunostaining)
Format: cell-based
Conditions: 3 days, MAG-positive area/cell nuclei; for activity at 0.3 µM / activity at 3 µM: Rattus norvegicus, 72 h; for activity at 0.3 µM: read-out: Schwann cell differentiation promotion rate (% of vehicle) 0.3 μmol/L; for activity at 3 µM: read-out: Schwann cell differentiation promotion rate (% of vehicle) 3 μmol/L
Procedure: Biological Experiment Example 1: In Vitro Test Using Schwann Cells
• (1) Preparation of rat Schwann cells
A dorsal root ganglion (abbreviated as “DRG”, hereinafter) was excised from a newborn rat aged 0 to 2 days in a clean bench and was collected in DMEM. After the collection, the tube was centrifuged at 400 g, at room temperature for 3 minutes, then a supernatant was discarded, and a 0.25% collagenase solution was added. There resultant solution was incubated at 37° C. for 30 minutes to disperse and separate the excised DRG, and was then centrifuged at room temperature at 400 g for 3 minutes, then a supernatant was discarded, and then 0.25% Trypsin/EDTA and DNaseI were added. After the incubation at 37° C. for 30 minutes, trypsin was inactivated with DMEM supplemented with 10% FBS (10% FBS-DMEM), and centrifugation was carried out at room temperature at 400 g for 3 minutes. A supernatant was discarded, then 10% FBS-DMEM was added to the residue to prepare a cell suspension, and then the cell suspension was allowed to pass through a filter (diameter: 70 μm). The number of cells in the cell suspension which passed through the filter was counted to prepare a solution having a concentration of 2.0×10^5 cells/mL, and the suspension was seeded in a poly-D-lysine-coated 96-well black-clear plate in an amount of 100 μL/well and was then statically cultured in a CO2 incubator under the conditions including 5% of CO2, 95% of air and 37° C.
The culture medium in the cell culture plate was removed by suction using an aspirator, and then DMEM supplemented with 1% dialyzed FBS and 100 μmol/L dibutyryl cyclic AMP was added. Subsequently, a solution of a compound of the present invention dissolved in DMSO was added, and the resultant solution was statically cultured in a C02 incubator under the conditions including 5% of C02, 95% of air and a temperature of 37° C. The final concentration of the compound of the present invention in each well in the cell culture plate was adjusted to 0.1, 0.3, 1 or 3 μmol/L.
Three days after the treatment with the compound, formaldehyde was added to each well in the cell culture plate, and the cell culture plate was allowed to stand at room temperature for 30 minutes or longer. A supernatant was discarded, and then a 0.3% tritonX-100 solution was added to each well, and then the cell culture plate was allowed to stand at room temperature for 20 minutes or longer. A supernatant was discarded, then a 5-μg/mL anti-myeline-associated glycoprotein antibody (anti-MAG antibody) solution was added to each well, and then the cell culture plate was allowed to stand at room temperature for 60 minutes or longer or at 4° C. (acceptable range: 1 to 9° C.) overnight. Each well was washed with a 0.1% tritonX-100 solution three times, then a 10-μg/mL Alexa fluor 488 anti-mouse IgG solution was added to each well, and then the cell culture plate was allowed to stand at room temperature for 60 or longer or at 4° C. overnight. Each well was washed with a 0.1% tritonX-100 solution four times, and then a 1-μg/mL Hoechst33342 solution was added to each well to stain nuclei.
The Mag-positive area and the number of cell nuclei in a fluorescent image were calculated. With respect to each of the MAG-positive area and the number of cell nuclei, the sum total of values obtained in 5 viewing fields/well was determined. The values were employed as a value for the MAG-positive area and a value for the number of cell nuclei, respectively, in each well. Subsequently, a value determined by dividing the value for the MAG-positive area in each well by the value for the number of cell nuclei in the well (i.e., MAG/cell nuclei numerical value) was calculated. The Schwann cell differentiation promotion rate was determined for each of the vehicles in accordance with the following formula. […]

Structure (SMILES)	activity at 0.3 µM (compound 0.3 μmol/L)	activity at 3 µM (compound 3 μmol/L)	Schwann cell differentiation promotion rate (% of vehicle) 0.3 μmol/L (compound 0.3 μmol/L)	Schwann cell differentiation promotion rate (% of vehicle) 3 μmol/L (compound 3 μmol/L)
O=C(O)CCc1ccccc1OCC[C@@H](O)/C=C/c1ccccc1CNS(=O)(=O)c1ccccc1 [Example 12(11), 3-[2-[(E,3R)-5-[2-(Benzenesulfonamidomethyl)phenyl]-3-hydroxypent-4-enoxy]phenyl]propanoic acid]	203%	505%	–	–
O=C(O)CCc1ccccc1OCCC/C=C/c1nc(C(O)Cc2ccccc2)cs1 (stereo not shown) [Example 93, 3-[2-[(E)-5-[4-(1-Hydroxy-2-phenylethyl)-1,3-thiazol-2-yl]pent-4-enoxy]phenyl]propanoic acid]	108%	374%	–	–
O=C(O)CCc1ccccc1OCC[C@@H](O)/C=C/c1cccc(C(O)CCc2ccccc2)c1 (stereo partly drawn) [Example 28, 3-[2-[(E,3R)-3-Hydroxy-5-[3-(1-hydroxy-3-phenylpropyl)phenyl]pent-4-enoxy]phenyl]propanoic acid]	188%	628%	–	–
O=C(CCc1ccccc1OCC[C@@H](O)/C=C/c1cccc(NS(=O)(=O)c2ccccc2)c1)N1CCOCC1 [Example 32(1), N-[3-[(E,3R)-3-Hydroxy-5-[2-(3-morpholin-4-yl-3-oxopropyl)phenoxy]pent-1-enyl]phenyl]benzenesulfonamide]	408%	–	–	–
O=C(O)CCc1ccccc1OCC[C@@H](O)/C=C/c1ccccc1NC(=O)c1ccccc1 [Example 12(5), 3-[2-[(E,3R)-5-(2-Benzamidophenyl)-3-hydroxypent-4-enoxy]phenyl]propanoic acid]	147%	234%	–	–
O=C(O)CCc1ccccc1OCC[C@@H](O)/C=C/c1cccc(C(=O)Nc2ccccc2)c1 [Example 12(8), 3-[2-[(E,3R)-3-Hydroxy-5-[3-(phenylcarbamoyl)phenyl]pent-4-enoxy]phenyl]propanoic acid]	158%	459%	–	–
O=C(O)CCc1ccccc1OCC[C@@H](O)/C=C/c1cccc(NS(=O)(=O)c2ccccn2)c1 [Example 74(16), 3-[2-[(E,3R)-3-Hydroxy-5-[3-(pyridin-2-ylsulfonylamino)phenyl]pent-4-enoxy]phenyl]propanoic acid]	212%	300%	–	–
O=C(O)CCc1ccccc1OCC[C@@H](O)/C=C/c1cccc(NS(=O)(=O)Cc2ccccc2)c1 [Example 74(15), 3-[2-[(E,3R)-5-[3-(Benzilsulfonylamino)phenyl]-3-hydroxypent-4-enoxy]phenyl]propanoic acid]	–	–	204.5 % of vehicle	428.1 % of vehicle
CC(C)OC(=O)CCc1ccccc1OCC[C@@H](O)/C=C/c1cccc(NS(=O)(=O)c2ccccc2)c1 [Example 10, Propan-2-yl 3-[2-[(E,3R)-5-[3-(benzenesulfonamido)phenyl]-3-hydroxypent-4-enoxy]phenyl]propanoate]	86.2%	593%	–	–
O=C(O)CCc1ccccc1OCC[C@@H](O)/C=C/c1ccc2c(c1)CN(S(=O)(=O)c1ccccc1)CC2 [Example 13(19), 3-[2-[(E,3R)-5-[2-(Benzenesulfonyl)-3,4-dihydro-1H-isoquinolin-7-yl]-3-hydroxypent-4-enoxy]phenyl]propanoic Acid]	142%	598%	–	–
O=C(O)CCc1ccccc1OCCCC(=O)CCc1cccc(NS(=O)(=O)c2ccccc2)c1 [Example 103, 3-[2-[6-[3-(Benzenesulfonamido)phenyl]-4-oxohexoxy]phenyl]propanoic acid]	199%	354%	–	–
O=C(O)CCc1ccccc1OCCCCCC1CCC(NS(=O)(=O)c2ccccc2)CC1 (stereo not shown) [Example 166, 3-[2-[5-[4-(Benzenesulfonamido)cyclohexyl]pentoxy]phenyl]propanoic acid]	104%	465%	–	–
O=C(O)CCc1ccccc1OCC[C@@H](O)C1CC1c1cccc(NS(=O)(=O)c2ccccc2)c1 (stereo partly drawn) [Example 39, 3-[2-[(3R)-3-[2-[3-(Benzenesulfonamido)phenyl]cyclopropyl]-3-hydroxypropoxy]phenyl]propanoic acid]	211%	323%	–	–
